Activity data for 1 compound are collected here from ChEMBL document CHEMBL4610024, “The ceramide analogue N-(1-hydroxy-3-morpholino-1-phenylpropan-2-yl)decanamide induces large lipid droplet accumulation and highlights the effect of LAMP-2 deficiency on lipid droplet degradation” (Bioorg Med Chem Lett, 2020).

Active and inactive are the calls of the source. The calls are words filed in the database; no cut-off is given here.

Test [1] concerns the target T1, Lysosome-associated membrane glycoprotein 2 (Mus musculus) (UniProt P17047).
T1 sequence (whole entry): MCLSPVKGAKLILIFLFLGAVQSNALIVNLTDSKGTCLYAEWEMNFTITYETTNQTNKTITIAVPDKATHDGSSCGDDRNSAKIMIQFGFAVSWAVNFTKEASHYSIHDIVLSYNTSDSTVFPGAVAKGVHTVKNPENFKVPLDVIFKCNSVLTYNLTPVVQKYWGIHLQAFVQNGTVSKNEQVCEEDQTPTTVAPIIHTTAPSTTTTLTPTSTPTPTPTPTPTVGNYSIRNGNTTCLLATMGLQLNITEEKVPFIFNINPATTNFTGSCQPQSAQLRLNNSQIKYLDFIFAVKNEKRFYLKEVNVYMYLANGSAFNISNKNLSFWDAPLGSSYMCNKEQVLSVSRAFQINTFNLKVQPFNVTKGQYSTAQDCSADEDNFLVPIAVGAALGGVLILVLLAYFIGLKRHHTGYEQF
Nature of the test: Induction of LAMP2-mediated lipid droplet enlargement in mouse L cells at 40 uM measured after 17 hrs by LipiDye staining based assay. The format is cell-based. As to conditions: L929.

Test [2] concerns L929. Nature of the test: Induction of lipid droplet degradation in CRISPR/Cas9-mediated LAMP2 knocked out mouse L cells at 40 uM measured after 17 hrs by LipiDye staining based assay. It counts as functional, cell-based.
In test [3] the target is T1, Lysosome-associated membrane glycoprotein 2 (Mus musculus). Briefly: Induction of LAMP2-mediated autophagy in mouse L cells assessed as increase in LC3 puncta at 40 uM measured after 17 hrs by Hoechst 33342 staining based assay. The conditions noted are these: L929. The format is cell-based.
Test [4] concerns L929. Nature of the test: Induction of autophagy in CRISPR/Cas9-mediated LAMP2 knocked out mouse L cells assessed as increase in […] puncta at 40 uM measured after 17 hrs by Hoechst 33342 staining based assay. The format is functional, cell-based.
The subject of test [5] is L929. Nature of the test: Induction of autophagy in CRISPR/Cas9-mediated LAMP2 knocked out mouse L cells assessed as formation of LC3 puncta rim around large autophagosome at 40 uM measured after 17 hrs by Hoechst 33342 staining based assay. It counts as functional, cell-based.
Test [6] relates to L929. Briefly: Induction of autophagy in CRISPR/Cas9-mediated LAMP2 knocked out mouse L cells assessed as formation of LC3 puncta rim in other part of cell at 40 uM measured after 17 hrs by Hoechst 33342 staining based assay. It counts as functional.
Test [7] has as its system L929. Nature of the test: Induction of large autophagosome formation in CRISPR/Cas9-mediated LAMP2 knocked out mouse L cells assessed as degradation of multilamellar bodies at 40 uM measured after 17 hrs by transmission electron microscopy analysis. The format is functional, cell-based.
For test [8], the system named is L929. Nature of the test: Induction of large autophagosome formation in CRISPR/Cas9-mediated LAMP2 knocked out mouse L cells assessed as accumulation of abnormal multilamellar bodies at 40 uM measured after 17 hrs by transmission electron microscopy analysis. The format is functional, cell-based.
The test system of test [9] is L929. Nature of the test: Induction of large autophagosome formation in CRISPR/Cas9-mediated LAMP2 knocked out mouse L cells assessed as decrease in multilamellar bodies layers at 40 uM measured after 17 hrs by transmission electron microscopy analysis. The format is functional, cell-based.
Test [10] has as its system L929. Nature of the test: Induction of large autophagosome formation in CRISPR/Cas9-mediated LAMP2 knocked out mouse L cells assessed as loosened multilamellar bodies at 40 uM measured after 17 hrs by transmission electron microscopy analysis. It counts as functional, cell-based.
In test [11] the target is T1, Lysosome-associated membrane glycoprotein 2 (Mus musculus). Nature of the test: Induction of LAMP2-mediated lipid droplet degradation in mouse L cells assessed as increase in length of long axis of lipid droplet at 40 uM measured after 17 hrs by transmission electron microscopy analysis. The format is cell-based. As to conditions: L929.
Test [12] deals with L929. Briefly: Induction of lipid droplet degradation in CRISPR/Cas9-mediated LAMP2 knocked out mouse L cells assessed as decrease in number of lipid droplet with long axis exceeding 1 um at 40 uM measured after 17 hrs by transmission electron microscopy analysis. The format is functional, cell-based.

For the compound `CCCCCCCCCC(=O)NC(CN1CCOCC1)C(O)c1ccccc1` (configuration not stated), the outcome in test [1], in [3], in [4], in test [5], in test [7] and in test [8] was Active. Further, the outcome in test [9], in test [10] and in test [11] was Active. Further, the result in test [2], in [6] and in [12] was inactive.
